According to the NIST ThermoML archive (doi:10.1016/j.jct.2017.03.006):

Conditions: Liquid; for mass density: Vibrating tube method; for viscosity: Concentric cylinders viscometry

Cc1ccc(C)c(C)c1 [1,2,4-trimethylbenzene]
Conditions	mass density [kg/m3]	viscosity [mPa·s]
273.15 K, 100 kPa	891.7	–
273.15 K, 1000 kPa	892.3	–
273.15 K, 2000 kPa	892.9	–
273.15 K, 5000 kPa	894.6	–
273.15 K, 10000 kPa	897.4	–
273.15 K, 15000 kPa	900.2	–
273.15 K, 20000 kPa	902.8	–
273.15 K, 30000 kPa	908	–
273.15 K, 40000 kPa	912.9	–
273.15 K, 50000 kPa	917.5	–
273.15 K, 60000 kPa	921.9	–
273.15 K, 70000 kPa	926.2	–
273.15 K, 80000 kPa	930.3	–
273.15 K, 90000 kPa	934.2	–
273.15 K, 100000 kPa	938	–
273.15 K, 110000 kPa	941.7	–
273.15 K, 120000 kPa	945.2	–
273.15 K, 130000 kPa	948.6	–
273.15 K, 140000 kPa	952	–
283.15 K, 100 kPa	883.3	–
283.15 K, 1000 kPa	883.9	–
283.15 K, 2000 kPa	884.5	–
283.15 K, 5000 kPa	886.3	–
283.15 K, 10000 kPa	889.3	–
283.15 K, 15000 kPa	892.2	–
283.15 K, 20000 kPa	895	–
283.15 K, 30000 kPa	900.3	–
283.15 K, 40000 kPa	905.4	–
283.15 K, 50000 kPa	910.2	–
283.15 K, 60000 kPa	914.8	–
283.15 K, 70000 kPa	919.3	–
283.15 K, 80000 kPa	923.5	–
283.15 K, 90000 kPa	927.5	–
283.15 K, 100000 kPa	931.4	–
283.15 K, 110000 kPa	935.2	–
283.15 K, 120000 kPa	938.9	–
283.15 K, 130000 kPa	942.4	–
283.15 K, 140000 kPa	945.8	–
293.15 K, 100 kPa	875.1	0.888
293.15 K, 1000 kPa	875.7	–
293.15 K, 2000 kPa	876.3	–
293.15 K, 5000 kPa	878.2	–
293.15 K, 10000 kPa	881.4	–
293.15 K, 15000 kPa	884.4	–
293.15 K, 20000 kPa	887.3	–
293.15 K, 30000 kPa	892.9	–
293.15 K, 40000 kPa	898.2	–
293.15 K, 50000 kPa	903.2	–
293.15 K, 60000 kPa	908	–
293.15 K, 70000 kPa	912.6	–
293.15 K, 80000 kPa	916.9	–
293.15 K, 90000 kPa	921.1	–
293.15 K, 100000 kPa	925.1	–
293.15 K, 110000 kPa	929	–
293.15 K, 120000 kPa	932.8	–
293.15 K, 130000 kPa	936.4	–
293.15 K, 140000 kPa	939.9	–
303.15 K, 100 kPa	867	0.779
303.15 K, 1000 kPa	867.6	–
303.15 K, 2000 kPa	868.3	–
303.15 K, 5000 kPa	870.3	–
303.15 K, 10000 kPa	873.6	–
303.15 K, 15000 kPa	876.8	–
303.15 K, 20000 kPa	879.8	–
303.15 K, 30000 kPa	885.7	–
303.15 K, 40000 kPa	891.2	–
303.15 K, 50000 kPa	896.4	–
303.15 K, 60000 kPa	901.4	–
303.15 K, 70000 kPa	906.1	–
303.15 K, 80000 kPa	910.6	–
303.15 K, 90000 kPa	914.9	–
303.15 K, 100000 kPa	919.1	–
303.15 K, 110000 kPa	923.1	–
303.15 K, 120000 kPa	927	–
303.15 K, 130000 kPa	930.7	–
303.15 K, 140000 kPa	934.3	–
313.15 K, 100 kPa	859	0.692
313.15 K, 1000 kPa	859.7	–
313.15 K, 2000 kPa	860.4	–
313.15 K, 5000 kPa	862.6	–
313.15 K, 10000 kPa	866	–
313.15 K, 15000 kPa	869.3	–
313.15 K, 20000 kPa	872.6	–
313.15 K, 30000 kPa	878.7	–
313.15 K, 40000 kPa	884.5	–
313.15 K, 50000 kPa	889.9	–
313.15 K, 60000 kPa	895	–
313.15 K, 70000 kPa	899.9	–
313.15 K, 80000 kPa	904.6	–
313.15 K, 90000 kPa	909	–
313.15 K, 100000 kPa	913.3	–
313.15 K, 110000 kPa	917.4	–
313.15 K, 120000 kPa	921.4	–
313.15 K, 130000 kPa	925.2	–
313.15 K, 140000 kPa	928.9	–
323.15 K, 100 kPa	851.3	0.62
323.15 K, 1000 kPa	852	–
323.15 K, 2000 kPa	852.7	–
323.15 K, 5000 kPa	855	–
323.15 K, 10000 kPa	858.6	–
323.15 K, 15000 kPa	862.1	–
323.15 K, 20000 kPa	865.5	–
323.15 K, 30000 kPa	871.9	–
323.15 K, 40000 kPa	877.9	–
323.15 K, 50000 kPa	883.5	–
323.15 K, 60000 kPa	888.9	–
323.15 K, 70000 kPa	894	–
323.15 K, 80000 kPa	898.8	–
323.15 K, 90000 kPa	903.4	–
323.15 K, 100000 kPa	907.8	–
323.15 K, 110000 kPa	912	–
323.15 K, 120000 kPa	916.1	–
323.15 K, 130000 kPa	920	–
323.15 K, 140000 kPa	923.8	–
333.15 K, 100 kPa	843.6	0.562
333.15 K, 1000 kPa	844.4	–
333.15 K, 2000 kPa	845.2	–
333.15 K, 5000 kPa	847.6	–
333.15 K, 10000 kPa	851.4	–
333.15 K, 15000 kPa	855.1	–
333.15 K, 20000 kPa	858.6	–
333.15 K, 30000 kPa	865.3	–
333.15 K, 40000 kPa	871.6	–
333.15 K, 50000 kPa	877.4	–
333.15 K, 60000 kPa	883	–
333.15 K, 70000 kPa	888.2	–
333.15 K, 80000 kPa	893.2	–
333.15 K, 90000 kPa	898	–
333.15 K, 100000 kPa	902.5	–
333.15 K, 110000 kPa	906.9	–
333.15 K, 120000 kPa	911.1	–
333.15 K, 130000 kPa	915.1	–
333.15 K, 140000 kPa	919	–

CCC(C)O (centres undefined) [butan-2-ol]
Conditions	mass density [kg/m3]	viscosity [mPa·s]
273.15 K, 100 kPa	822.3	–
273.15 K, 1000 kPa	822.7	–
273.15 K, 2000 kPa	823.4	–
273.15 K, 5000 kPa	825.4	–
273.15 K, 10000 kPa	828.7	–
273.15 K, 15000 kPa	831.8	–
273.15 K, 20000 kPa	834.7	–
273.15 K, 30000 kPa	840.4	–
273.15 K, 40000 kPa	845.7	–
273.15 K, 50000 kPa	850.7	–
273.15 K, 60000 kPa	855.4	–
273.15 K, 70000 kPa	859.9	–
273.15 K, 80000 kPa	864.3	–
273.15 K, 90000 kPa	868.4	–
273.15 K, 100000 kPa	872.4	–
273.15 K, 110000 kPa	876.3	–
273.15 K, 120000 kPa	879.9	–
273.15 K, 130000 kPa	883.5	–
273.15 K, 140000 kPa	887.2	–
293.15 K, 100 kPa	806.3	3.725
293.15 K, 1000 kPa	807	–
293.15 K, 2000 kPa	807.8	–
293.15 K, 5000 kPa	810	–
293.15 K, 10000 kPa	813.6	–
293.15 K, 15000 kPa	817	–
293.15 K, 20000 kPa	820.2	–
293.15 K, 30000 kPa	826.5	–
293.15 K, 40000 kPa	832.3	–
293.15 K, 50000 kPa	837.7	–
293.15 K, 60000 kPa	842.8	–
293.15 K, 70000 kPa	847.7	–
293.15 K, 80000 kPa	852.3	–
293.15 K, 90000 kPa	856.7	–
293.15 K, 100000 kPa	860.9	–
293.15 K, 110000 kPa	865	–
293.15 K, 120000 kPa	868.8	–
293.15 K, 130000 kPa	872.7	–
293.15 K, 140000 kPa	876.3	–
303.15 K, 100 kPa	–	2.555
313.15 K, 100 kPa	789.4	1.814
313.15 K, 1000 kPa	790.1	–
313.15 K, 2000 kPa	791	–
313.15 K, 5000 kPa	793.5	–
313.15 K, 10000 kPa	797.5	–
313.15 K, 15000 kPa	801.4	–
313.15 K, 20000 kPa	805.1	–
313.15 K, 30000 kPa	811.9	–
313.15 K, 40000 kPa	818.3	–
313.15 K, 50000 kPa	824.1	–
313.15 K, 60000 kPa	829.6	–
313.15 K, 70000 kPa	835	–
313.15 K, 80000 kPa	839.9	–
313.15 K, 90000 kPa	844.6	–
313.15 K, 100000 kPa	849	–
313.15 K, 110000 kPa	853.3	–
313.15 K, 120000 kPa	857.5	–
313.15 K, 130000 kPa	861.5	–
313.15 K, 140000 kPa	865.4	–
323.15 K, 100 kPa	–	1.331
333.15 K, 100 kPa	770.7	1.007
333.15 K, 1000 kPa	771.6	–
333.15 K, 2000 kPa	772.6	–
333.15 K, 5000 kPa	775.5	–
333.15 K, 10000 kPa	780.1	–
333.15 K, 15000 kPa	784.4	–
333.15 K, 20000 kPa	788.6	–
333.15 K, 30000 kPa	796.2	–
333.15 K, 40000 kPa	803.2	–
333.15 K, 50000 kPa	809.6	–
333.15 K, 60000 kPa	815.7	–
333.15 K, 70000 kPa	821.4	–
333.15 K, 80000 kPa	826.7	–
333.15 K, 90000 kPa	831.8	–
333.15 K, 100000 kPa	836.6	–
333.15 K, 110000 kPa	841.2	–
333.15 K, 120000 kPa	845.5	–
333.15 K, 130000 kPa	849.8	–
333.15 K, 140000 kPa	853.9	–
